Data published in patent US11891601B2, “Method to enhance the transcription regulation of SUPT4H on genes containing repetitive nucleotide sequences” (National Yang-Ming University, priority 2018, dated 2024).

System: R-loops in genes containing lengthy CAG repeats, including mutant HTT
Experiment: DIP assay of R-loops in genes with lengthy CAG repeats, including mutant HTT, in murine neuronal cells
Assay type: cell-based, mouse
Details: 30 μM tropolone for 12 hours in Hdh cells
Description: Yeast cells were collected after culturing in 2% galactose-containing medium for 12 hours, and then grinded by glass beads in the presence of 300 μl extraction buffer (10 mM Tris-HCl pH 8.0, 10 mM EDTA, 200 mM NaCl, 1% SDS, 2% Triton X-100, 25 units RNase inhibitor). The nucleic acid mixture was subjected to sonication (Bioruptor UCD-200) and extracted by phenol (pH 8.0). Purified chromatin DNA and RNA, with or without RNase H treatment for 90 minutes, was precipitated by monoclonal antibody S9.6 bound to protein G agarose beads. […] The RNA/DNA hybrid (R-loop) signal was analyzed by qPCR and the Quantitative-Comparative CT (MCT) program. In yeast experiments, a pair of primers (Primer-B F and Primer-B R) were used to quantify R-loop signal in the vicinity of CAG repeats and the primer set AMP was used as a control. […] For Hdh^Q7/Q7 and Hdh^Q111/Q111, mouse HTT DIP primer set was used to quantify R-loop signal of the CAG repeating region and Tubal a DIP primer set was included as a control. […]
Please refer to FIG. 7. […] RNA was extracted and analyzed by real-time RT-qPCR to measure the quantity of HTT, SUPT4H and snRNA U6. […] HTT, SUPT4H, TATA-box binding protein (TBP) were measured. […] Analogous to FIG. 7(C), the quantification of HTT protein levels is shown in bottom panel.

O=c1cccccc1O [Tropolone]
R-loops in genes containing lengthy CAG repeats, including mutant HTT: able to increase R-loops
